# Data reported in patent US7718639B2, “7-hydroxyepiandrosterone having neuroprotective activity” (Hunter-Fleming Limited, priority 2000, dated 2010).
# Columns and labels:
# [1] = system: CA1 cell layer of organotypic hippocampal slice cultures; experiment: Hypoxic neuronal damage in organotypic hippocampal slice cultures (PI fluorescence in CA1); assay type: cell-based, Wistar rat; conditions: for reduction of hypoxic CA1 damage (in words): present pre-
# Description: Organotypic hippocampal slice cultures were prepared using the basic method of Pringle et al (1996, 1997) modified as follows:
# Wistar rat pups (8-11 days old) were decapitated and the hippocampus rapidly dissected into ice-cold Gey's balanced salt solution supplemented with 4.5 mg/ml glucose. Slices were separated and plated onto Millicell CM culture inserts (4 per well) and maintained at 37° C./5% CO2 for 14 days. Maintenance medium consisted of 25% heat-inactivated horse serum, 25% Hank's balanced salt solution (HBSS) and 50% minimum essential medium with added Earle's salts (MEM) supplemented with 1 mM glutamine and 4.5 mg/ml glucose. Medium was changed every 3-4 days.
# Experimental hypoxia was performed as described previously (Pringle et al., 1996; 1997). Briefly, cultures were transferred to serum free medium (SFM—75% MEM, 25% HBSS supplemented with 1 mM glutamine and 4.5 mg/ml glucose) containing 5 μg/ml of the fluorescent exclusion dye propidium iodide (PI). Cultures were allowed to equilibrate in SFM for 60 minutes prior to imaging. PI fluorescence was detected using a Leica inverted microscope fitted with a rhodamine filter set. Any cultures in which PI fluorescence was detected at this stage were excluded from further study. Hypoxia was induced by transferring cultures to SFM (+PI) which had been saturated with 95%N2/5%CO2. Culture plates (without lids) were then sealed into an airtight chamber in which the atmosphere was saturated with 95%N2/5%CO2 by continuously blowing through gas at 10 L/min for ten minutes before being sealed and placed in the incubator for 170 mins (total time of hypoxia was therefore 180 mins). At the end of the hypoxic period cultures were returned to normoxic SFM containing PI and placed back in the incubator for 24 hours.
# Neuronal damage was assessed as described previously (Pringle et al., 1996; 1997) using either NIH Image 1.60 running on an Apple IIsi computer or OpenLab 2.1 (Improvision) running on a Macintosh G4/400. Images were captured using a monochrome camera and saved onto optical disk for offline analysis. Light transmission images were captured prior to the addition of drugs, and PI fluorescence images recorded at the end of the 24-hour post-hypoxia recovery period. The area of the CA1 cell layer was determined from the transmission image. The area of PI fluorescence in CA1 was measured using the density slice function within NIH image or Openlab, and neuronal damage expressed as the percentage of the CA1 in which PI fluorescence was detected above background.
# Steroid compounds were prepared by making an initial 1 mg/ml solution in ethanol and further diluting down in SFM. Compounds were added to the cultures for 45 minutes prior to hypoxia, during the hypoxic episode and during the post-hypoxic recovery period. Control experiments consisted of cultures treated with vehicle alone.
# [2] = system: hippocampal CA1 pyramidal cells; experiment: Global cerebral ischemia in rats (4 vessel occlusion), surviving CA1 neurons by Nissl staining; assay type: in vivo, male Wistar rats
# Description: Cerebral ischemia was induced by four-vessel-occlusion (4VO) in male Wistar rats (250-280 g). Both vertebral arteries were occluded by electrocauterization in pentobarbital anesthesia (60 mg/kg i.p.). The animals were allowed to recover for 24 hours with free access to water but not food. The next day the carotid arteries were exposed under 2% halothane in 30% oxygen/70% nitrous oxide anesthesia and were occluded for 10 minutes using microvascular claps. Subsequently, both clamps were removed and both arteries were inspected for immediate reperfusion. During the operation and the following 3 hours normothermia of the animals (37.5Γ0.5° C.) was maintained by using a thermostatically controlled heating blanket connected to a rectal thermometer. For control, in sham-operated animals both vertebral arteries were cauterized in pentobarbital anesthesia and both common carotid arteries were exposed but not clamped under 2% halothane in 30% oxygen/70% nitrous oxide anesthesia the following day. The wound was treated with lidocaine gel and then sutured. The animals were kept under a heating lamp at 30° C. environmental temperature until they regained consciousness.
# Seven groups of animals were investigated: • 1. (n=8) steroid compound, 7β-OH EPIA (0.1 mg/kg, i.v. via tail vein, three injections: 15 minutes prior to the induction of ischemia, during ischemia and 5 minutes after reperfusion); • 2. (n=8) steroid compound, 7β-OH EPIA (0.3 mg/kg, i. v. three injections as described in 1.); • 3. (n=8) steroid compound, 7β-OH EPIA (1 mg/kg, i. v., three injections as described in 1.); • 4. (n=8) NBQX (disodium salt, because more water soluble) as reference substance and positive control (TOCRIS, Germany, 30 mg/kg, i. p., three injections as described in 1.); • 5. (n=8) received vehicle (0.9% NaCl, containing 100 μl Ethanol) three injections as described in 1.); • 6. (n=8) ischemia alone; • 7. (n=8) sham operated controls.
# The substances were dissolved in 100 μl Ethanol and finally diluted with 0.9% NaCl.
# After a survival time of 7 days after ischemia, all animals were perfusion fixed transcardially with 4% paraformaldehyde. The brains were then removed carefully and postfixed in the same fixative for 2 hours. After cryoprotection in 30% sucrose, the brains were rapidly frozen in isopentane and stored at −80° C. Twenty-micrometer cryostat sections comprising the hippocampal formation were Nissl stained with toluidine blue or NeuroTrace fluorescence.
# The severity of neuronal damage in the hippocampal CA1 region after ischemia was evaluated by the number of surviving neurons using Nissl staining. The mean number of morphologically intact neurons per 400 μm length was calculated in CA1 region for each group. […] The data were statistically analyzed by paired Student's t-test. […]
# [3] = Experiment 1, 100 nM, compound present pre-, during and post-hypoxia, control hypoxia 25.5 ± 6.4
# [4] = Experiment 1, 100 nM, during and post-hypoxia
# [5] = Experiment 2, 1 nM, control hypoxia 31.9 ± 4.7
# [6] = Experiment 2, 10 nM, control hypoxia 31.9 ± 4.7
# [7] = Experiment 2, 100 nM, control hypoxia 31.9 ± 4.7
Compound,"% Damage in CA1 [1, 3]","reduction of hypoxic CA1 damage (in words) [1, 4]","neuroprotective effect against hypoxic damage (in words) ([1]; Experiment 2, 1 nM)","% Damage in CA1 [1, 5]","neuroprotective effect against hypoxic damage (in words) ([1]; Experiment 2, 10 nM)","% Damage in CA1 [1, 6]","neuroprotective effect against hypoxic damage (in words) ([1]; Experiment 2, 100 nM)","% Damage in CA1 [1, 7]","neuroprotective effect on CA1 pyramidal cells compared to the sham operated group ([2]; 0.1 mg/kg i.v., three injections, 10 min global ischemia, 7 days survival, p=0.01)","neuroprotective effect on CA1 pyramidal cells compared to the sham operated group ([2]; 0.3 mg/kg i.v., three injections, 10 min global ischemia, 7 days survival, p=0.0008)","neuroprotective effect on CA1 pyramidal cells (in words) ([2]; 1.0 mg/kg i.v., three injections, 10 min global ischemia, 7 days survival)","behavioral abnormalities of the animals ([2]; injected i.v. prior, during and after ischemia, all experiments)"
"CC12CCC3C(C1CCC2=O)[C@H](O)C[C@H]1C[C@@H](O)CCC31C (stereo partly drawn) [7αOH-EPIA, 7α-Hydroxy-EPIA]",4.0 ± 2.9 %,significantly reduced,no effect,28.8 ± 5.8%,not-statistically significant reduction,21.9 ± 8.1%,significantly protective,11.8 ± 2.8 %,,,,
"CC12CCC3C(C1CCC2=O)[C@@H](O)C[C@H]1C[C@@H](O)CCC31C (stereo partly drawn) [7βOH-EPIA, 7β-hydroxyepiandrosterone]",9.0 ± 4.7 %,significantly reduced,activity was lost,20.6 ± 7.2%,significantly neuroprotective,11.9 ± 4.7 %,significantly neuroprotective,14.3 ± 5.0 %,74.8%,83.9%,"only a tendency to neuroprotection, but the effect was not significant",never observed any behavioral abnormalities
